Experimental data as given in ChEMBL document CHEMBL1201862, “PubChem BioAssay data set” (2004).
Blank lines part the entries; values can stand above or below the compound they belong to. Active and inactive are the calls of the source.

Columns and labels:
[1] = molecular target: Mitogen-activated protein kinase 10 (Homo sapiens, UniProt P53779); test: Dose response biochemical screening assay for inhibitors of c-Jun N-Terminal Kinase 3 (JNK3). [Related pubchem assays: 746 ]
[2] = molecular target: T1, Low molecular weight phosphotyrosine protein phosphatase (Homo sapiens, UniProt P24666); test: LMPTP phosphatase inhibitors, dose response, biochemical, OMFP substrate, fluorescence intensity, set 2 (AID 743307); type: functional
T1 sequence (P24666 whole entry): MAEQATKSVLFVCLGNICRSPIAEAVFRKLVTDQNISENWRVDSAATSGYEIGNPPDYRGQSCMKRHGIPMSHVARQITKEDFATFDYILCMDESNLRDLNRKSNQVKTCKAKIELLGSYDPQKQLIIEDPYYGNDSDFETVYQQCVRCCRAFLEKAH

[3] = molecular target: T1, Low molecular weight phosphotyrosine protein phosphatase; test: LMPTP phosphatase inhibitors, colorimetric pNPP readout, dose response, orthogonal assay, biochemical, absorbance, pNPP substrate, LMPTP-A isoform, set 2 (AID 743308); type: functional
[4] = HepG2 cell cytotoxicity, dose response, cytotoxicity control, luminescence, dry powder, set 9 (AID 743358); type: functional, cell-based
[5] = cytotoxicity toward HCT116 cells – cell-based, CellTiter-Glo luminescence, IC50, dose response (AID 1117332); type: functional; conditions: HCT-116
[6] = SNU-C1 cell viability reduction, dose response, CellTiter-Glo luminescence (AID 1117323); type: functional, cell-based
[7] = molecular target: T2, DNA repair protein RAD52 homolog (Homo sapiens, UniProt P43351); type: functional, biochemical
T2 sequence (P43351 whole entry): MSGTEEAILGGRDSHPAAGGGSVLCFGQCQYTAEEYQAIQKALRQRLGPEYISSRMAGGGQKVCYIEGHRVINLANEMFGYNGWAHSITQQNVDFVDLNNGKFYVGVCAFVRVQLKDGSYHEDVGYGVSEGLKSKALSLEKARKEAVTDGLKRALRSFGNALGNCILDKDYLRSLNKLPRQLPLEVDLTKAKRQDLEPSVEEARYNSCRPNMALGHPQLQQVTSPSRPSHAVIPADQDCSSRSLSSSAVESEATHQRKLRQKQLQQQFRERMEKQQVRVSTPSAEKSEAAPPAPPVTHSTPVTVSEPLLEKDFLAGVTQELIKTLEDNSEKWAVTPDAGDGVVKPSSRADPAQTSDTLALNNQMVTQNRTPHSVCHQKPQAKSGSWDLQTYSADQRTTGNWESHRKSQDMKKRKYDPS

[8] = HCT116 cell viability decrease, GSK3B pretreatment – CellTiter-Glo, IC50, dose response (AID 1117339); type: functional; conditions: HCT-116
[9] = cytotoxicity toward NIH3T3 fibroblasts, dose response, counter-screen, cell-based, ATP luminescence, mouse fibroblasts (AID 2010); type: functional;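 further: cells exposed to compound for about 90 hours before reading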
[10] = Concentration-dependent survival of SW480 colon cancer line, luminescence detection with CellTiter-Glo, half-maximal inhibitory concentration (AID 1117338); type: functional
cells = type: functional, cell-based; conditions: INS-1E
[11] = RKO cell viability reduction, dose response, CellTiter-Glo luminescence (AID 1117322); type: functional
[12] = CellTiter-Glo luminescent dose response of DLD-1 viability loss (AID 1117352); type: functional
[13] = Dose-response inhibition of insulin secretion in a rat insulinoma line at 5 mM glucose (AID 1117331); type: functional, cell-based; conditions: INS-1E
[14] = HepG2 cell cytotoxicity, dose response, cytotoxicity control, ATP luminescence, cherry-pick, activator set 2 (AID 1053143); type: functional, cell-based
[15] = molecular target: SWI/SNF-related matrix-associated actin-dependent regulator of chromatin subfamily A member 2 (Homo sapiens, UniProt P51531); test: Luminescence-based cell-based high throughput dose response assay to identify activators of the function of SWI/SNF related, matrix associated, actin dependent regulator of chromatin, subfamily a, member 2 (SMARCA2, BRM).; type: functional
SWI/SNF-related matrix-associated actin-dependent regulator of chromatin subfamily A member 2, sequence (P51531 whole entry): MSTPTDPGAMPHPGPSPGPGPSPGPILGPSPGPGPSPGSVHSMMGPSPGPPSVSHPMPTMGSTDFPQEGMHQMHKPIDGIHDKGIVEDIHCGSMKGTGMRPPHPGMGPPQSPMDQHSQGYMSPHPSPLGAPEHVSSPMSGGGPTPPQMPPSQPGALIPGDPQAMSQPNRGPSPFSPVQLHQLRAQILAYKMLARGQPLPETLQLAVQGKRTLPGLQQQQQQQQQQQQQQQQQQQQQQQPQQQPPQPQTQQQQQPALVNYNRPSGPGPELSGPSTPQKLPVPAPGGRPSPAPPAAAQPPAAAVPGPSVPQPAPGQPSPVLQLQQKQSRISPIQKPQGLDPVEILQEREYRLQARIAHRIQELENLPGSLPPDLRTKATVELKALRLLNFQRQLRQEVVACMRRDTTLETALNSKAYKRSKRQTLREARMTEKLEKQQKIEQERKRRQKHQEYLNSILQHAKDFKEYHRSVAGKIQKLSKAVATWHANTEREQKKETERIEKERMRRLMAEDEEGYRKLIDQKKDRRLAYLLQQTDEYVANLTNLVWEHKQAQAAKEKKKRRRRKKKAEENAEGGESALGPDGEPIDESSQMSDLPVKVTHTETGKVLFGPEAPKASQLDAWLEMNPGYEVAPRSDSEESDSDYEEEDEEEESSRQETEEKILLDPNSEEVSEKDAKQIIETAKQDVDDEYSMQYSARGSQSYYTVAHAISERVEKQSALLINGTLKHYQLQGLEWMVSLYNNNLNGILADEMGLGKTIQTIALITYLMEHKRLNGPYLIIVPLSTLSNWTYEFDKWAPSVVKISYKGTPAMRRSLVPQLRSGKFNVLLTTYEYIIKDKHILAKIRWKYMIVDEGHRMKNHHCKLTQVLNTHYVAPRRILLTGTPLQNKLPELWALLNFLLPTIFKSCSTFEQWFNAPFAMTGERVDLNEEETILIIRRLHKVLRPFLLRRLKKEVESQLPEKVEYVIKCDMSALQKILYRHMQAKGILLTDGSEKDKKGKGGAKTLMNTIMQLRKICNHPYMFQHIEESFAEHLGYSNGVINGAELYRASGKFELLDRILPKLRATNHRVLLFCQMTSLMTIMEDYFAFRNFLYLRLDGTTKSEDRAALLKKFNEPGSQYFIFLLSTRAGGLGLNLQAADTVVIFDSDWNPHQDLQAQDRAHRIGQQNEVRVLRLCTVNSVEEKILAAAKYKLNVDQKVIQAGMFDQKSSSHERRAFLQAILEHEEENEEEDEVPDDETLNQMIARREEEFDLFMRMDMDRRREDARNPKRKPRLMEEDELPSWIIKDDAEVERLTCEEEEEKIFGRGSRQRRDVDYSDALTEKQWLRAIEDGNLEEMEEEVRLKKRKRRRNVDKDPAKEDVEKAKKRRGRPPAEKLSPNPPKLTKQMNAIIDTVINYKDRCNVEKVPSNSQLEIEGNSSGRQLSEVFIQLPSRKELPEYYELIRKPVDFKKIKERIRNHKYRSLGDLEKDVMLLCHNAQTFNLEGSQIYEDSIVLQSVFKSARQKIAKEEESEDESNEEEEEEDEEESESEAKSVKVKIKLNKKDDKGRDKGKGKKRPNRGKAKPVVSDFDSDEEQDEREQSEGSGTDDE

[16] = cytotoxicity toward Colo320 cells – cell-based, CellTiter-Glo luminescence, IC50, dose response (AID 1117334); type: functional; conditions: COLO 320
[17] = inhibitors of intracellular T. cruzi replication, confirmation, NIH3T3 host cells, beta-gal luminescence (AID 2044); type: functional, cell-based;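 further: intracellular parasites grown in NIH/3T3 mouse fibroblasts as host cells; luminescent beta-galactosidase reporter signal from transgenic T. cruzi replicating inside host cells; inhibitors lower the luminescence signal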
[18] = Counterscreen for activators of the function of SWI/SNF related, matrix associated, actin dependent regulator of chromatin, subfamily a, member 2 (SMARCA2, BRM): Luminescence-based cell-based high throughput dose response assay to identify non-selective compounds using the VP16 reporter assay.; type: functional
[19] = cytotoxicity toward HT-29 cells – cell-based, CellTiter-Glo luminescence, IC50, dose response (AID 1117330); type: functional
[20] = Glucagon-like peptide 1 release potency, NCI-H716 cell line, dose-response, half-maximal inhibitory concentration (AID 1117344); type: functional, cell-based
[21] = half-maximal inhibitory concentration for glucagon-like peptide-1 release, STC-1 cell line, dose-response (AID 1117345); type: functional, cell-based
[22] = P. falciparum 3D7-ScDHODH growth inhibitors, dose response, SYBR Green, dry powder samples (AID 1159570); type: functional, cell-based;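 further: parasite growth measured after 72 hours of compound exposure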
[23] = P. falciparum Dd2 growth inhibitors, dose response, SYBR Green, cherry-picked samples (AID 1159567); type: functional, cell-based
[24] = P. falciparum ATP4 D1247Y mutant growth inhibitors, dose response, NITD609-resistant line, SYBR Green, dry powder (AID 1159571); type: functional, cell-based;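 further: parasites synchronized at ring stage by sorbitol before testing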
[25] = HepG2 cell cytotoxicity, dose response, cytotoxicity control, cherry-picked samples (AID 1159577); type: functional, cell-based
[26] = P. falciparum Dd2 growth inhibitors, dose response, SYBR Green, dry powder samples (AID 1159566); type: functional, cell-based;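 further: potency for growth inhibition with lower SYBR green DNA signal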
[27] = HepG2 cell cytotoxicity, dose response, cytotoxicity control, plate reader, dry powder samples (AID 1159569); type: functional, cell-based;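 further: inhibitor potency with signal falling toward the positive control level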
ELAV-like protein 1 = ELAV-like protein 1 (Homo sapiens, UniProt Q15717); test: Identify HuR specific inhibitors.; type: functional
ELAV-like protein 1, sequence (Q15717 whole entry): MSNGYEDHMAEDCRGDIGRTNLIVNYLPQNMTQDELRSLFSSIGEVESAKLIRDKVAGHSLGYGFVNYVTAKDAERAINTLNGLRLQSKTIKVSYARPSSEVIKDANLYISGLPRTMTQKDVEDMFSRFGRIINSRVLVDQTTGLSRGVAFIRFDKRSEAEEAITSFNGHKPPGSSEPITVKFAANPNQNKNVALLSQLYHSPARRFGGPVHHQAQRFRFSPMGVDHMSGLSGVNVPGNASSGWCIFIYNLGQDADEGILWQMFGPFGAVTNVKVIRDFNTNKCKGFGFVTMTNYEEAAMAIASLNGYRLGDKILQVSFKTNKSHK

Caspase-6 = molecular target: T3, Caspase-6 (Homo sapiens, UniProt P55212); test: human caspase-6 inhibitors, dose response, biochemical, VEID-R110 fluorescence, cherry-pick (AID 720632)
T3 sequence (P55212 whole entry): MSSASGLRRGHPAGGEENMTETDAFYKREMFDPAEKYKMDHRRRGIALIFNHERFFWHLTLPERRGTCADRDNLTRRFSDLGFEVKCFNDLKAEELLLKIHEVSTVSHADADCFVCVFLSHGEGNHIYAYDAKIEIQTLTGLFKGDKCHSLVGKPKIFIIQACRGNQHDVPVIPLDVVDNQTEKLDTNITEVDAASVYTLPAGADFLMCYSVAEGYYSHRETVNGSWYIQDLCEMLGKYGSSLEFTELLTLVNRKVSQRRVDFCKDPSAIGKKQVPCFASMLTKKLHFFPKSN

Protein Tat = Protein Tat (Human immunodeficiency virus type 1 group M subtype B (isolate HXB2)(HIV-1), UniProt P04608); type: functional;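 further: tat binding to TAR RNA read out by fluorescence polarization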
Protein Tat, sequence (P04608 whole entry): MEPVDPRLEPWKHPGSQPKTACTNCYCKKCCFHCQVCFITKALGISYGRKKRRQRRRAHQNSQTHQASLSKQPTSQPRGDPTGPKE

[28] = molecular target: T4, Rac GTPase-activating protein 1 (Homo sapiens, UniProt Q9H0H5); test: MgcRacGAP GTPase-activating activity inhibitors, confirmation, biochemical, ADP Hunter fluorescence, primary and confirmatory (AID 624330); type: functional
T4 sequence (Q9H0H5 whole entry): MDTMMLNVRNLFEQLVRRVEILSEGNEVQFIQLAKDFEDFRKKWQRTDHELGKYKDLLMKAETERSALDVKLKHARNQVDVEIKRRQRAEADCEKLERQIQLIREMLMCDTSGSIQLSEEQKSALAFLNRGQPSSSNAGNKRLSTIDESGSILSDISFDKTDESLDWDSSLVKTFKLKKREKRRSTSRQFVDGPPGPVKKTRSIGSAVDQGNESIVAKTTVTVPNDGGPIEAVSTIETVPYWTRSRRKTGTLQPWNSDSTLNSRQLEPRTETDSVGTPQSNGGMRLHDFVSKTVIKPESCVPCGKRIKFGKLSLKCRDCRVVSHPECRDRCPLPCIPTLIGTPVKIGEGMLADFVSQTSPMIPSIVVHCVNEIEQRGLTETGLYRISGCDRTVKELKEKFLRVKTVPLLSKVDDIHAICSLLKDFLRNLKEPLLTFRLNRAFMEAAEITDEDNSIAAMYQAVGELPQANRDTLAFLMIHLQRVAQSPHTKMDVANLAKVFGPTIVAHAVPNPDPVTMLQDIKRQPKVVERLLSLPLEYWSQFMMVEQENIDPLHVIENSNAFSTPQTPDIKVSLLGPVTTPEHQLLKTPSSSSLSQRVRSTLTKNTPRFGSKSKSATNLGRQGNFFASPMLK

[29] = inhibitors of Vif binding to APOBEC3G peptide, primary screen, biochemical, TR-FRET, GST-Vif 1-94, biotin-A3G peptide, dose response retest (AID 1117319); type: functional;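 further: TR-FRET signal of purified GST-Vif binding a biotinylated A3G peptide; inhibitors lower the FRET signal by blocking Vif and A3G binding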
[30] = Vero cell cytotoxicity, dose response, cytotoxicity control for Vif-APOBEC3G degradation inhibitor project, Vero cells (AID 1117358); type: functional; conditions: Human immunodeficiency virus 1, Vero

Mitogen-activated protein kinase 10, sequence (P53779 whole entry): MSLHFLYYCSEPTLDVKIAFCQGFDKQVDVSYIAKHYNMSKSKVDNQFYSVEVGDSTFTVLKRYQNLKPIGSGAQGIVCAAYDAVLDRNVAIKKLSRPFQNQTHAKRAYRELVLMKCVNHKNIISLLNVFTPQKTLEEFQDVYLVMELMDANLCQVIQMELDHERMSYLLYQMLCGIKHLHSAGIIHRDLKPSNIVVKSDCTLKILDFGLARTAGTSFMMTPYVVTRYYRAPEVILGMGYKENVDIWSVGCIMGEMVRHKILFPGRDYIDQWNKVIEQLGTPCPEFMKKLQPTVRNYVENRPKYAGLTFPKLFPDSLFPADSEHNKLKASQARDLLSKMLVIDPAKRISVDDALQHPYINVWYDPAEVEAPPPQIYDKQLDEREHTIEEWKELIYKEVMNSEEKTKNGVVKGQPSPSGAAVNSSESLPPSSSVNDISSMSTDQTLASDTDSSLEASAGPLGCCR

IC50 [1]: 6.69 µM (active)
Compound: O=C1C(c2ccncc2)=C(O)c2ccccc21

IC50 [2]: 5.46 µM (active)
IC50 [3]: 11.9 µM (active)
Compound: c1ccc(-c2cc(NCCN3CCCC3)c3ccccc3n2)cc1

Compound: COc1cccc(NC(=O)N2CC[C@@H]3[C@@H](CO)N(C)c4ccc(-c5cccc(F)c5)cc4[C@@H]32)c1
AC50 [4]: > 52 µM (inactive)

Compound: Nc1c2ccccc2nc2ccccc12
IC50 [5]: 2.02 µM (active)
IC50 [6]: > 6.67 µM (inactive)
AC50 [7]: 2.48 µM (active)
IC50 [8]: 3.87 µM (active)
EC50 [9]: 10.6 µM (active)
IC50 [10]: > 20 µM (inactive)
IC50 (cells): > 33.3 µM (inactive)
IC50 [11]: > 6.67 µM (inactive)
IC50 [12]: > 20 µM (inactive)
IC50 [13]: 18.5 µM (inactive)
AC50 [14]: 6.26 µM (active)
EC50 [15]: > 3.37 µM (active)
IC50 [16]: 8.81 µM (inactive)
EC50 [17]: 1.16 µM (active)
EC50 [18]: > 91.1 µM (inactive)
IC50 [19]: > 20 µM (inactive)

Compound: CCCCC(CC)COC(=O)CC(C(=O)OCC(CC)CCCC)S(=O)(=O)O (configuration not stated) [DOCUSATE]
IC50 [5]: > 20 µM (inactive)
IC50 [6]: > 20 µM (inactive)
IC50 [8]: 16.6 µM (inactive)
IC50 [10]: > 20 µM (inactive)
IC50 [20]: 22.9 µM (inactive)
IC50 [11]: > 20 µM (inactive)
IC50 [12]: > 20 µM (inactive)
IC50 [21]: > 40 µM (inactive)
IC50 [16]: > 20 µM (inactive)
IC50 [19]: > 20 µM (inactive)

Compound: Cc1ccc(-c2ccc([C@@H]3[C@H](CO)N4CCCCN(S(=O)(=O)c5cccc(C)c5)C[C@@H]34)cc2)cc1
AC50 [22]: 1.15 µM (active)
AC50 [23]: 1.49 µM (active)
AC50 [24]: 0.87 µM (active)
AC50 [25]: > 39 µM (inactive)
AC50 [26]: 0.955 µM (active)
AC50 [27]: 16.4 µM (active)

IC50 (ELAV-like protein 1): 41 µM (active)
AC50 (Caspase-6): 13.7 µM (active)
IC50 (Protein Tat): 49.3 µM (inconclusive)
IC50 [28]: 40.2 µM (active)
Compound: Cc1ccc(Nc2ccc(N)cc2S(=O)(=O)O)cc1

IC50 [29]: > 100 µM (active)
Compound: CCOC(=O)c1c(NC(=O)C(C)N2CCN(C(=O)c3ccco3)CC2)sc2c1CCCC2 (configuration not stated)
CC50 [30]: 21.6 µM (active)
